“Also recorded” adds a separate entry of the source.
Columns and labels:
[1] = target: T1, ALK fusion protein in Ba/F3 cell-derived xenograft tumors with the EML4-ALK L1196M/G1202R fusion (Homo sapiens, UniProt Q9UM73, G1202R/L1196M); experiment: In vivo pharmacodynamic study, tumor immunoblotting; set-up: species or system mice; conditions: for ALK phosphorylation level compared to control: 0.6, 2, or 5 mg/kg
T1 construct: expressed in transfected cells; host or cells: Ba/F3 cells (lentiviral transduction), implanted subcutaneously in SCID/Beige mice; the other entry of the earlier key: EML4 (Q9HC35, Echinoderm microtubule-associated protein-like 4)
Procedure: Mice bearing xenograft tumors were humanely euthanized and tumors were resected and snap frozen in liquid nitrogen and stored at −80° C. Frozen tumor samples were processed at 4° C. in 1× Cell Lysis Buffer (Cell Signaling Technologies) to extract proteins. SDS loading samples were prepared by addition of 4×LDS Sample Buffer and 10× Reducing Reagent (Life Technologies, Inc) to protein lysate. Tumor SDS protein samples were processed by SDS-PAGE and immunoblotted with rabbit anti-phosphorylated ALK Y1282/1283, rabbit anti-phosphorylated ALK Y1604, rabbit anti-ALK and mouse anti-actin antibodies (Cell Signaling Technologies). The signals from immunoblot were detected by C-DiGit Blot Scanner from LI-COR and the signal intensity were quantified using the Image Studio Digit software (LI-COR).
As the control, the expression level of actin was not affected by Compound 1 treatment.

[2] = target: KG-1 cell (OP2-FGFR1) (Homo sapiens, UniProt P11362); experiment: Cell proliferation assay (CellTiter-Glo)
[3] = target: T2, ALK (Homo sapiens, UniProt Q9UM73); experiment: Biochemical kinase assay (Reaction Biology); conditions: 10 μM ATP
T2 construct: purchased Reaction Biology Corporation (contract assay)

[4] = target: T3, ALK (C1156Y) (Homo sapiens, UniProt Q9UM73, C1156Y); experiment: Biochemical kinase assay (Reaction Biology); conditions: 10 μM ATP
T3 construct: purchased Reaction Biology Corporation (contract assay)

[5] = target: T4, ALK (D1203N) (Homo sapiens, UniProt Q9UM73, D1203N); experiment: Biochemical kinase assay (Reaction Biology); conditions: 10 μM ATP
T4 construct: purchased Reaction Biology Corporation (contract assay)

[6] = target: T5, ALK (delete G1202) (Homo sapiens, UniProt Q9UM73, DEL1202-1202); experiment: Biochemical kinase assay (Reaction Biology); conditions: 10 μM ATP
T5 construct: purchased Reaction Biology Corporation (contract assay)

[7] = target: T6, ALK (E1210K) (Homo sapiens, UniProt Q9UM73, E1210K); experiment: Biochemical kinase assay (Reaction Biology); conditions: 10 μM ATP
T6 construct: purchased Reaction Biology Corporation (contract assay)

[8] = target: T7, ALK (E1210K/D1203N) (Homo sapiens, UniProt Q9UM73, D1203N/E1210K); experiment: Biochemical kinase assay (Reaction Biology); conditions: 10 μM ATP
T7 construct: purchased Reaction Biology Corporation (contract assay)

[9] = target: T8, ALK (E1210K/S1206C) (Homo sapiens, UniProt Q9UM73, E1210K/S1206C); experiment: Biochemical kinase assay (Reaction Biology); conditions: 10 μM ATP
T8 construct: purchased Reaction Biology Corporation (contract assay)

[10] = target: T9, ALK (F1174L) (Homo sapiens, UniProt Q9UM73, F1174L); experiment: Biochemical kinase assay (Reaction Biology); conditions: 10 μM ATP
T9 construct: purchased Reaction Biology Corporation (contract assay)

[11] = target: T10, ALK (G1269A) (Homo sapiens, UniProt Q9UM73, G1269A); experiment: Biochemical kinase assay (Reaction Biology); conditions: 10 μM ATP
T10 construct: purchased Reaction Biology Corporation (contract assay)

[12] = target: T11, ALK (G1269S) (Homo sapiens, UniProt Q9UM73, G1269S); experiment: Biochemical kinase assay (Reaction Biology); conditions: 10 μM ATP
T11 construct: purchased Reaction Biology Corporation (contract assay)

[13] = target: T12, ALK (I1171N) (Homo sapiens, UniProt Q9UM73, I1171N); experiment: Biochemical kinase assay (Reaction Biology); conditions: 10 μM ATP
T12 construct: purchased Reaction Biology Corporation (contract assay)

[14] = target: T13, ALK (L1152P) (Homo sapiens, UniProt Q9UM73, L1152P); experiment: Biochemical kinase assay (Reaction Biology); conditions: 10 μM ATP
T13 construct: purchased Reaction Biology Corporation (contract assay)

[15] = target: T14, ALK (L1198F/C1156Y) (Homo sapiens, UniProt Q9UM73, C1156Y/L1198F); experiment: Biochemical kinase assay (Reaction Biology); conditions: 10 μM ATP
T14 construct: purchased Reaction Biology Corporation (contract assay)

[16] = target: T15, ALK (L1198F/G1202R) (Homo sapiens, UniProt Q9UM73, G1202R/L1198F); experiment: Biochemical kinase assay (Reaction Biology); conditions: 10 μM ATP
T15 construct: purchased Reaction Biology Corporation (contract assay)

[17] = target: T16, ALK (R1275Q) (Homo sapiens, UniProt Q9UM73, R1275Q); experiment: Biochemical kinase assay (Reaction Biology); conditions: 10 μM ATP
T16 construct: purchased Reaction Biology Corporation (contract assay)

[18] = target: T17, ALK (S1206R) (Homo sapiens, UniProt Q9UM73, S1206R); experiment: Biochemical kinase assay (Reaction Biology); conditions: 10 μM ATP
T17 construct: purchased Reaction Biology Corporation (contract assay)

[19] = target: T18, ALK (T1151-L1152insT) (Homo sapiens, UniProt Q9UM73, INS1151T); experiment: Biochemical kinase assay (Reaction Biology); conditions: 10 μM ATP
T18 construct: purchased Reaction Biology Corporation (contract assay)

[20] = target: T19, ALK (T1151M) (Homo sapiens, UniProt Q9UM73, T1151M); experiment: Biochemical kinase assay (Reaction Biology); conditions: 10 μM ATP
T19 construct: purchased Reaction Biology Corporation (assay run there)

[21] = target: T20, ALK (V1180L) (Homo sapiens, UniProt Q9UM73, V1180L); experiment: Biochemical kinase assay (Reaction Biology); conditions: 10 μM ATP
T20 construct: purchased Reaction Biology Corporation (assay run there)

[22] = single oral dose 10 mg/kg, 2 hours post dose, tumor immunoblot, 10 mg/kg

CC1(C)COc2ccc(F)cc2CN2c3nc4c(cnn4cc3OC[C@H]2C(F)F)C(=O)N1 [Compound 1, (4S)-4-(Difluoromethyl)-8-fluoro-13,13-dimethyl-3,4,13,14-tetrahydro-6H-18,1-(metheno)[1,4]oxazino[3,4-i]pyrazolo[4,3-f][1,4,8,10]benzoxatriazacyclotridecin-15(12H)-one]
ALK phosphorylation level compared to control ([1]; at 12 hours): only showed reduction at 12 hours at the highest dose
ALK phosphorylation level compared to control ([1]; each dose, at 2 hours): significantly reduced
level of ALK fusion expression vs vehicle [1, 22]: reduction; also recorded: reduced
level of phosphorylation of ALK fusions at Y1282/1283 vs vehicle [1, 22]: inhibition of phosphorylation; also recorded: reduced
level of phosphorylation of ALK fusions at Y1604 vs vehicle [1, 22]: inhibition of phosphorylation; also recorded: reduced
IC50 [2]: 554 nM

O=C1NCC2(CC2)COc2ccc(F)cc2CN2c3nc4c1cnn4cc3OC[C@H]2C(F)F [Compound 2, (16′S)-16′-(Difluoromethyl)-12′-fluoro-4′H,5′H,6′H,8′H,14′H,16′H,17′H-spiro[cyclopropane-1,7′-[1,19](metheno)[1,4]oxazino[3,4-j]pyrazolo[4,3-g][1,5,9,11]benzoxatriazacyclotetradecin]-4′-one]
IC50 [3]: 1.4 nM
IC50 [4]: 0.11 nM
IC50 [5]: 2.9 nM
IC50 [6]: 0.45 nM
IC50 [7]: 0.21 nM
IC50 [8]: 4 nM
IC50 [9]: 0.13 nM
IC50 [10]: 0.42 nM
IC50 [11]: 1.28 nM
IC50 [12]: 6.14 nM
IC50 [13]: 1.16 nM
IC50 [14]: 1.96 nM
IC50 [15]: 0.15 nM
IC50 [16]: 0.49 nM
IC50 [17]: 0.72 nM
IC50 [18]: 0.31 nM
IC50 [19]: 0.86 nM
IC50 [20]: 0.28 nM
IC50 [21]: 0.51 nM
IC50 [2]: 3.8 nM

Source: US11142533B2, “Macrocycles for use in treating disease” (TURNING POINT THERAPEUTICS, INC., priority 2019, dated 2021)
